Measurements published in article PMC9014410, “Discovery of V-0219: A Small-Molecule Positive Allosteric Modulator of the Glucagon-Like Peptide-1 Receptor toward Oral Treatment for “Diabesity”” (Journal of Medicinal Chemistry, 2022).
“And” between values parts separate entries of the source, which are not always exact repeats. Equal entries are not always repeated. “Also recorded” adds a separate entry of the source.

Key:
[1] = tested on: male Wistar rats; test: Feeding inhibition in 12-h fasted male Wistar rats (icv)
[2] = tested on: GLP-1R KO mice; test: Glucose tolerance test in GLP-1R KO mice; format: in vivo, mouse; conditions: (S)-9; 2 g/kg glucose
Description: (§1) Glucose tolerance test was carried out both in Wistar and Zucker (fa/fa) obese male rats and in wild-type and GLP-1R KO mice, by injecting an ip glucose load of 2 g/kg body weight (diluted in saline) or by oral administration of a glucose solution (2 g/kg in a volume of water of […] body weight). Animals were food-deprived overnight (12 h fasting) before testing. Thirty minutes before glucose load, animals received by ip administration the compound being tested dissolved in saline/DMSO (0.2%) as vehicle. Tail blood samples were collected before (0 min) and 5, 10, 15, 30, 45, 60, and 120 min after glucose administration. Glucose was determined using a commercial glucometer (Accu-check, Roche Diagnostic).

[3] = tested on: INS-1 β-cells; test: Insulin secretion by rat INS-1 / INS-1E insulinoma cells; format: cell-based; conditions: INS-1E cells, 0.5 mM glucose, single representative experiment
Description: The incubation was done using two types of culture media, defined as low glucose (0.5–3 mM) and high glucose (15 mM). […] Incubation with compounds lasted 30 min, and then the media was collected, centrifuged at 4 °C for 2 min until assayed for insulin using commercial ELISA kit.

[4] = tested on: EndoC-βH1 cells; test: Insulin secretion by human pancreatic EndoC-βH1 cells; format: cell-based; conditions: high glucose concentration
Description: Both cell lines were cultured in RPMI 1640 medium supplemented with 10% fetal calf serum as described. Cell monolayers were incubated at 37 °C in a 7.5% CO2 atmosphere. For insulin secretion studies, cells were detached, washed once with glucose-free medium and placed in 48 multiwell plates (100,000 cells per well) and kept in glucose-free medium for 1.5 h prior to incubation with drugs. The incubation was done using two types of culture media, defined as low glucose (0.5–3 mM) and high glucose (15 mM). […] Incubation with compounds lasted 30 min, and then the media was collected, centrifuged at 4 °C for 2 min until assayed for insulin using commercial ELISA kit.

[5] = tested on: Zucker (fa/fa) obese male rats; test: Glucose tolerance test in diabetic fatty Zucker rats; format: in vivo, rat; conditions: (S)-9 0.4 mg/kg intragastrically; ip 2 g/kg glucose
[6] = tested on: wild-type C57BL/6N mice; test: Glucose tolerance test in wild-type mice; format: in vivo, mouse
Description: as §1

[7] = tested on: Wistar rats; test: Glucose tolerance test in Wistar rats; format: in vivo, rat; conditions: (S)-9 0.04 and 0.2 mg/kg ip; ip 2 g/kg glucose
Description: as §1

[8] = target: hGLP-1R (Homo sapiens, UniProt P43220); test: Calcium mobilization / calcium fluxes in HEK cells stably expressing hGLP-1R (ExviTech flow cytometry); conditions: 10 μM compound, then EC25 of GLP-1
[9] = tested on: male Wistar rats; test: Anxiety-like behavior in the elevated plus-maze; format: in vivo, rat; conditions: 9 1 and 0.5 mg/kg ip
Description: Animals naïve to the maze were manipulated for 7 days before testing. The day of the experiment, 30 min after ip injection of 9, animals were placed in the center of the maze, facing an open arm. The number of entries and the % of time spent in the exposed arms of the maze were measured. Test length was 5 min and animals were not retested.

[10] = tested on: panel of 54 GPCRs; test: Selectivity panel of binding assays (Eurofins Cerep); conditions: 10 μM; all 54 receptors
Text: (§2) 3. Binding to off-target receptors
(§3) Eurofins Cerep (France). Significant binding affinity was defined as a displacement of target
selective radioligand greater than 50% using a concentration of 10 µM of 9. […]

[11] = Microsomal stability test as summarised in the text (species not given in the sentence); format: in vitro ADME; conditions: rat, dog, human, liver microsomes; text summary of Table S6; read-out: half-life time in a microsomal stability test
[12] = target: CYP2C9 (Homo sapiens, UniProt P11712); test: P450 cytochrome inhibition, CYP2C9; format: in vitro ADME
Description: Inhibition of P450 cytochrome isoforms. […] Effect on hERG channel. […] Patch clamp experiments were carried out using […]® robot. […] After S27

[13] = target: T1, A2A (h) (Homo sapiens, UniProt P29274); test: biochemical; set-up: radioligand displacement binding panel (Eurofins Cerep), % inhibition of control specific binding; conditions: agonist radioligand; read-out: % Inhibition of Control Specific Binding
T1 construct: gene ADORA2A
Text: as §2, §3
(§4) selective radioligand greater than 50% using a concentration of 10 µM of 9.

[14] = target: T2, GAL2 (h) (Homo sapiens, UniProt O43603); test: biochemical; set-up: radioligand displacement binding panel (Eurofins Cerep), % inhibition of control specific binding; conditions: agonist radioligand; read-out: % Inhibition of Control Specific Binding
T2 construct: gene GALR2
Text: as §2, §3, §4

[15] = target: T3, A1 (h) (Homo sapiens, UniProt P30542); test: biochemical; set-up: radioligand displacement binding panel (Eurofins Cerep), % inhibition of control specific binding; conditions: antagonist radioligand; read-out: % Inhibition of Control Specific Binding
T3 construct: gene ADORA1
Text: as §2, §3, §4

[16] = target: T4, NK2 (h) (Homo sapiens, UniProt P21452); test: biochemical; set-up: radioligand displacement binding panel (Eurofins Cerep), % inhibition of control specific binding; conditions: agonist radioligand; read-out: % Inhibition of Control Specific Binding
T4 construct: gene TACR2
Text: as §2, §3, §4

[17] = target: CCR1 (h) (Homo sapiens, UniProt P32246); test: biochemical; set-up: radioligand displacement binding panel (Eurofins Cerep), % inhibition of control specific binding; conditions: agonist radioligand; read-out: % Inhibition of Control Specific Binding
Text: as §2, §3, §4

[18] = target: T5, B2 (h) (Homo sapiens, UniProt P30411); test: biochemical; set-up: radioligand displacement binding panel (Eurofins Cerep), % inhibition of control specific binding; conditions: agonist radioligand; read-out: % Inhibition of Control Specific Binding
T5 construct: gene BDKRB2
Text: as §2, §3, §4

[19] = target: T6, H2 (h) (Homo sapiens, UniProt P25021); test: biochemical; set-up: radioligand displacement binding panel (Eurofins Cerep), % inhibition of control specific binding; conditions: antagonist radioligand; read-out: % Inhibition of Control Specific Binding
T6 construct: gene HRH2
Text: as §2, §3, §4

[20] = target: T7, A3 (h) (Homo sapiens, UniProt P0DMS8); test: biochemical; set-up: radioligand displacement binding panel (Eurofins Cerep), % inhibition of control specific binding; conditions: agonist radioligand; read-out: % Inhibition of Control Specific Binding
T7 construct: gene ADORA3
Text: as §2, §3, §4

[21] = target: T8, β1 (h) (Homo sapiens, UniProt P08588); test: biochemical; set-up: radioligand displacement binding panel (Eurofins Cerep), % inhibition of control specific binding; conditions: agonist radioligand; read-out: % Inhibition of Control Specific Binding
T8 construct: gene ADRB1
Text: as §2, §3, §4

[22] = target: T9, H1 (h) (Homo sapiens, UniProt P35367); test: biochemical; set-up: radioligand displacement binding panel (Eurofins Cerep), % inhibition of control specific binding; conditions: antagonist radioligand; read-out: % Inhibition of Control Specific Binding
T9 construct: gene HRH1
Text: as §2, §3, §4

[23] = target: T10, MT1 (ML1A) (h) (Homo sapiens, UniProt P48039); test: biochemical; set-up: radioligand displacement binding panel (Eurofins Cerep), % inhibition of control specific binding; conditions: agonist radioligand; read-out: % Inhibition of Control Specific Binding
T10 construct: gene MTNR1A
Text: as §2, §3, §4

[24] = target: T11, NK3 (h) (Homo sapiens, UniProt P29371); test: biochemical; set-up: radioligand displacement binding panel (Eurofins Cerep), % inhibition of control specific binding; conditions: antagonist radioligand; read-out: % Inhibition of Control Specific Binding
T11 construct: gene TACR3
Text: as §2, §3, §4

[25] = In vivo pharmacokinetic study in male Sprague Dawley rats; conditions: rat, plasma
[26] = target: hERG channel (Homo sapiens, UniProt Q12809); test: hERG channel inhibition, whole cell patch clamp in hERG-transfected CHO cells
Sequence of hERG channel (Q12809 whole entry): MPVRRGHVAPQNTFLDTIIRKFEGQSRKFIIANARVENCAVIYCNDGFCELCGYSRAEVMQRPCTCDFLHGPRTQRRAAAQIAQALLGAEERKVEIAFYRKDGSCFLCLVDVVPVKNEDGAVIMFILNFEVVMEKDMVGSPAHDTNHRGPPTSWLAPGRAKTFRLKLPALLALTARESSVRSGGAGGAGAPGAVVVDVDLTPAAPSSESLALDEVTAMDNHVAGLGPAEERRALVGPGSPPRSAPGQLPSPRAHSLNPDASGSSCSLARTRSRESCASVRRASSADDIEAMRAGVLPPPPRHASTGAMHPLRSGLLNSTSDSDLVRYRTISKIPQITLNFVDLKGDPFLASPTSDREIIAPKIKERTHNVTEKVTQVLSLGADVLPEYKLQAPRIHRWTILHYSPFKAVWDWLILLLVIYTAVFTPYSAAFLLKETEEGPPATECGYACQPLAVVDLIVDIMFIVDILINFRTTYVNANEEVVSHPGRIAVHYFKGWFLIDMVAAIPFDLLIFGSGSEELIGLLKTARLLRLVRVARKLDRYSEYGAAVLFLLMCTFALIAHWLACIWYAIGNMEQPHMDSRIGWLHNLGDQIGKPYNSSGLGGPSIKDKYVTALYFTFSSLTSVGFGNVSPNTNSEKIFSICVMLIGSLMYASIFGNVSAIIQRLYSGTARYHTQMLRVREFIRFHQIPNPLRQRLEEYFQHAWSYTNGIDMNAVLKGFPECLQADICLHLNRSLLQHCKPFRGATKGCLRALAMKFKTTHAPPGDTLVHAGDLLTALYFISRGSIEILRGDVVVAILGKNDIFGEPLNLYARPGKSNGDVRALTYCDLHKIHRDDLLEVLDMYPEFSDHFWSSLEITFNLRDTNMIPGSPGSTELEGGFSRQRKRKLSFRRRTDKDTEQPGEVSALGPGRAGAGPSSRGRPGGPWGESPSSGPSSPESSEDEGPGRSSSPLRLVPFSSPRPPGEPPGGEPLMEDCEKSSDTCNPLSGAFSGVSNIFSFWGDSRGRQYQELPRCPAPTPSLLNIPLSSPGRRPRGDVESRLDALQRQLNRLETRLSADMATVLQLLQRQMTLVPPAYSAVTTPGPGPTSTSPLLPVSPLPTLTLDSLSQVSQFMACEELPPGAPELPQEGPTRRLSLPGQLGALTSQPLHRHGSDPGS
Description: (tail) current was investigated using Chinese Hamster Ovary (CHO) cells stably transfected with
hERG, employing the whole cell patch clamp technique.
hERG inhibition. Patch clamp experiments were carried out using FlyscreenP® robot. CHO cells
choline chloride, 5 mM KCl, 1 mM MgCl2(H2O)6, 10 mM HEPES, 10 mM glucose, pH 7.4) to give
cell density of ~ 0.5 million per mL, and transferred to the cell mixer on Flyscreen® 8500 robot
which keeps cell suspension in a ready-for-use condition.
KMeSO3, 5 mM MgCl2(H2O)6, 10 mM HEPES-KOH, 5 mM EGTA, 5 mM K2ATP at pH 7.2. Ionic
currents from hERG transfected cells were measured in the whole cell configuration. Once the whole
the hERG current. An EC NaCl solution (120 mM NaCl, 5 mM KCl, 1.8 mM CaCl2, 10 mM
HEPES, 10 mM glucose, pH 7.4) was added for control readings, which were measured for ~ 360 s
followed by compound addition.
continuously for ~ 600 seconds. For analysis purposes, the current of interest (IKr) was considered.
Results were expressed as absolute values and percent change from control. Percent inhibition was
calculated by comparing the IKr current before and after addition of test compound once a steady-
state current had been attained.

T2 sequence (O43603 whole entry): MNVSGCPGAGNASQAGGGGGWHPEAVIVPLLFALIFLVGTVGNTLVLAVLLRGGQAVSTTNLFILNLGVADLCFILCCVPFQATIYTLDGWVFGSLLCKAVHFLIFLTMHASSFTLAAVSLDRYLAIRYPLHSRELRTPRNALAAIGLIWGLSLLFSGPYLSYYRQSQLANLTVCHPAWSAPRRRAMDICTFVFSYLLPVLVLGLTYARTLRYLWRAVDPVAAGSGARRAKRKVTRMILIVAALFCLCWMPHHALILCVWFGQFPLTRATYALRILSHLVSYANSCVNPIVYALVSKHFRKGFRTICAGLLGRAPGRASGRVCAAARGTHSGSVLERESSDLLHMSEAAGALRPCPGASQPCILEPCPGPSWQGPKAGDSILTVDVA
T8 sequence (P08588 whole entry): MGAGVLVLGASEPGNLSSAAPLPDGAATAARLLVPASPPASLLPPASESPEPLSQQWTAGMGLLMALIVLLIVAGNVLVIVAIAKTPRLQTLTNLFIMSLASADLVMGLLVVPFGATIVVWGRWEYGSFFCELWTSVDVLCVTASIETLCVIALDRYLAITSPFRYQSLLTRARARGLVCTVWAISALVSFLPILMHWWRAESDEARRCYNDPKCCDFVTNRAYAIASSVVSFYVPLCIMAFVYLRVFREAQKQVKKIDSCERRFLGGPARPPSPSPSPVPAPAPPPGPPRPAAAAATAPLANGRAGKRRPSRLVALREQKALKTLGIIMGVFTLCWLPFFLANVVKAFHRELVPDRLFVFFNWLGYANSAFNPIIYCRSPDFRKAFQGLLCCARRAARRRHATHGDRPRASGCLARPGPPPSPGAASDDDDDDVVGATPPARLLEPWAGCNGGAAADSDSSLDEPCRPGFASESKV
T7 sequence (P0DMS8 whole entry): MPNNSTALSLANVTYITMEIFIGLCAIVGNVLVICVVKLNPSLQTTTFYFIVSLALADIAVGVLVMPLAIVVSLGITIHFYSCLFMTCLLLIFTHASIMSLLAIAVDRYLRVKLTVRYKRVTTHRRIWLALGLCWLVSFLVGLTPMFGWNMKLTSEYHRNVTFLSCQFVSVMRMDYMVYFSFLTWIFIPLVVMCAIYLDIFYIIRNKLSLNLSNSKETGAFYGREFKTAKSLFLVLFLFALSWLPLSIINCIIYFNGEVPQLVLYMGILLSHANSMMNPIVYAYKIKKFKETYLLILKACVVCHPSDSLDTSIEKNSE
T11 sequence (P29371 whole entry): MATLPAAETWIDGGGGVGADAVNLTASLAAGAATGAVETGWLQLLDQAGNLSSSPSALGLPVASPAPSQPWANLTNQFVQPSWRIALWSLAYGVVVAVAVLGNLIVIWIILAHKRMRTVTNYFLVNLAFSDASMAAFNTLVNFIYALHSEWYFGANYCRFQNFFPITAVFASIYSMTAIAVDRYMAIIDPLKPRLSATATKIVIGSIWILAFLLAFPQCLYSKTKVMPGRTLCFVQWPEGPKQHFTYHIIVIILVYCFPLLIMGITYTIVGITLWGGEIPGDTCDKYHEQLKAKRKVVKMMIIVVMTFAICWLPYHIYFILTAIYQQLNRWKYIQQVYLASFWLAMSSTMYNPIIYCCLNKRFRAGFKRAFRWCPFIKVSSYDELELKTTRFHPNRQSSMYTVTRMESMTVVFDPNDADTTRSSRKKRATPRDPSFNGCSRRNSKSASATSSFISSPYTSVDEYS
T6 sequence (P25021 whole entry): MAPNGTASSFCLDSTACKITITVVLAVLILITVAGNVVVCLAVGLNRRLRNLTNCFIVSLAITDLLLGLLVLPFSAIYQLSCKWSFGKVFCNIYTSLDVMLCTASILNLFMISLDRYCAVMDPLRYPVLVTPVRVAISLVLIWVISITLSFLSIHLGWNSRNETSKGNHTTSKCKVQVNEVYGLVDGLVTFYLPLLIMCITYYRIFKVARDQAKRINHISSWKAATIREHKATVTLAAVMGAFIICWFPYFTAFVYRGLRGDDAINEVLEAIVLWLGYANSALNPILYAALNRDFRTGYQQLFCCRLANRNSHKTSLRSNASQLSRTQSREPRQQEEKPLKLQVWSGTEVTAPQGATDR
Sequence of hGLP-1R (P43220 24-463): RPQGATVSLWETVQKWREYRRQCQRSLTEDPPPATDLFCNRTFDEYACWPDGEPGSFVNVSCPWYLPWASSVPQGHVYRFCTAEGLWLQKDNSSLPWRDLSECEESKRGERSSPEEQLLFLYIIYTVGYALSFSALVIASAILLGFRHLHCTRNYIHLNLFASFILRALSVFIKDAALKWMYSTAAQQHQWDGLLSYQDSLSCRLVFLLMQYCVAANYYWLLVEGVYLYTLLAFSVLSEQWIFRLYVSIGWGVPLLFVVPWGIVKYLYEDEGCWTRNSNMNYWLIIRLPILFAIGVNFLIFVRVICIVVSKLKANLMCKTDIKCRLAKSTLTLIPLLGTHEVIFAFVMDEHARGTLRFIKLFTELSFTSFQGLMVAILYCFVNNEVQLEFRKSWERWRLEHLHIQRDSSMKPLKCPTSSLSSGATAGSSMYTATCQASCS
T9 sequence (P35367 whole entry): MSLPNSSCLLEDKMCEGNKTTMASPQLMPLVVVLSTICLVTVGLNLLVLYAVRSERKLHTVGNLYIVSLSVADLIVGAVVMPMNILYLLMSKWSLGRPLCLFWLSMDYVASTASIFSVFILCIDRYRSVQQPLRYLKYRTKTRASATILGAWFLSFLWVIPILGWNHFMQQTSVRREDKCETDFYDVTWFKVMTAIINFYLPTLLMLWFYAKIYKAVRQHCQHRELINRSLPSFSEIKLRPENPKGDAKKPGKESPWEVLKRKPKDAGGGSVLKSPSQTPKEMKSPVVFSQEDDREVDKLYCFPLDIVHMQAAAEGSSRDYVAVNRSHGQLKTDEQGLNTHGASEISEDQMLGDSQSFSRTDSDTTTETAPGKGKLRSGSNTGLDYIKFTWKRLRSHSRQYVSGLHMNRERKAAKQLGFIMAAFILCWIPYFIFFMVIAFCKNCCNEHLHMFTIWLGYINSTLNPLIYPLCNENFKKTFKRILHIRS
T10 sequence (P48039 whole entry): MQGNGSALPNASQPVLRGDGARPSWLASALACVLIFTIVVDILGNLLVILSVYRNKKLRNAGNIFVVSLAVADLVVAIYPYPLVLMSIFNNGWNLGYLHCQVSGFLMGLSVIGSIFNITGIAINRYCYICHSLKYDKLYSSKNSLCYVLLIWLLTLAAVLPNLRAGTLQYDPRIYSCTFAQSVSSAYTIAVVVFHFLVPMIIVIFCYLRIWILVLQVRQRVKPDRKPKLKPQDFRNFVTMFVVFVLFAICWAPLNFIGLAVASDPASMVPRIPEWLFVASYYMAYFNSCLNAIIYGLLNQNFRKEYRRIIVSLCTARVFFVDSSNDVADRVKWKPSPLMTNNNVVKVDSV
T4 sequence (P21452 whole entry): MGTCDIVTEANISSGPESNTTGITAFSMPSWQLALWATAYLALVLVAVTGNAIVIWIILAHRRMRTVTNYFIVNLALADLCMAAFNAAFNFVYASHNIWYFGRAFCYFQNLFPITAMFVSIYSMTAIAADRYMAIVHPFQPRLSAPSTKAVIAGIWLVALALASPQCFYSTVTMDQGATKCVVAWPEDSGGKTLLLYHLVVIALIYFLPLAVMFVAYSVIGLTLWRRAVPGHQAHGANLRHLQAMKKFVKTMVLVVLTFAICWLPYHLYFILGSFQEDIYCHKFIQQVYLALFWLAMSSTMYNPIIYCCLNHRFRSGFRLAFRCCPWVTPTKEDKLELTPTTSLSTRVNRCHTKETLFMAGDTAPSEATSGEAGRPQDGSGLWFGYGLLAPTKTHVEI

FC(F)(F)c1ccc(-c2noc(CN3CCC[C@@H](CN4CCOCC4)C3)n2)cc1 [(S)-9, (+)-4-{[(3S)-1-({3-[4-(Trifluoromethyl)phenyl]-1,2,4-oxadiazol-5-yl}methyl)piperidin-3-yl]methyl}morpholine]
duration of the feeding effect after injection ([1]; (S)-9 5 μg/kg icv): up to 2 h
effect on feeding ([1]; (S)-9 5 μg/kg icv): decreased feeding
glucose handling after glucose load [2]: devoid; also recorded: inactive
Insulin secreted ([3]; 0.1 nM test substance): 29 ng/mL
Insulin secreted ([3]; 1 nM test substance): 39 ng/mL
Insulin secreted ([3]; 10 nM test substance): 37 ng/mL
potentiation of insulin secretion stimulated by GLP-1 (in words) [4]: similarly potentiate insulin secretion stimulated by GLP-1
glucose handling after glucose load, oral dosing [5]: orally active
glucose handling after glucose load ([6]; (S)-9, 2 g/kg glucose, 12-h fasted): improvement
glucose handling after glucose load [7]: clearly improved glucose handling

O=S(=O)(NC1CCN(Cc2nc(-c3ccc(C(F)(F)F)cc3)no2)CC1)c1ccccc1Cl [compound 1]
result of ExviTech library screening [8]: putative modulator of the GLP-1R

FC(F)(F)c1ccc(-c2noc(CN3CCCC(CN4CCOCC4)C3)n2)cc1 (stereo not shown) [compound 9, 4-{[1-({3-[4-(Trifluoromethyl)phenyl]-1,2,4-oxadiazol-5-yl}methyl)piperidin-3-yl]methyl}morpholine]
anxiety-like behavior in the elevated plus-maze [9]: does not induce anxiety-like behavior; also recorded: did not result in the emergence of anxiety-like behaviors nor hypolocomotion
displacement of the specific binding [10]: lower than 50%
half-life at 1 µM [11]: > 30 min
potentiation of feeding inhibition induced by exendin-4 (in words) ([1]; 9 1 μg/kg icv): potentiates; also recorded: potentiate the feeding inhibition; also recorded: enhancing satiety induced by the GLP-1R agonist exendin-4
IC50 [12]: 80 µM
inhibition at 10 µM [13]: -3%
inhibition at 10 µM [14]: 0%
inhibition at 10 µM [15]: 5%
inhibition at 10 µM [16]: 19%
inhibition at 10 µM [17]: 4%
inhibition at 10 µM [18]: 8%
inhibition at 10 µM [19]: -13%
inhibition at 10 µM [20]: -20%
inhibition at 10 µM [21]: 3%
inhibition at 10 µM [22]: -4%
inhibition at 10 µM [23]: -3%
inhibition at 10 µM [24]: -8%
AUC(0-inf) at 24 h ([25]; IV 2 mg/kg, mean ± SD, N = 4): 311 ± 12.9 ng·h/mL
AUC(0-t) at 24 h ([25]; IV 2 mg/kg, mean ± SD, N = 4): 278 ± 20 ng·h/mL
C0 ([25]; IV 2 mg/kg, mean ± SD, N = 4): 492 ± 81.9 ng/mL
clearance at 24 h ([25]; IV 2 mg/kg, mean ± SD, N = 4): 107 ± 4.58 mL/min/kg
half-life at 24 h ([25]; IV 2 mg/kg, mean ± SD, N = 4): 195 ± 61.8 min
Vd at 24 h ([25]; IV 2 mg/kg, mean ± SD, N = 4, read-out: Vss): 18.1 ± 6.62 L/kg
bioavailability ([25]; PO 10 mg/kg vs IV 2 mg/kg): 39%
bioavailability at 24 h ([25]; PO 10 mg/kg vs IV 2 mg/kg): 38.9 ± 9.52%
AUC(0-inf) at 24 h ([25]; PO 10 mg/kg, mean ± SD, N = 4): 644 ± 267 ng·h/mL
AUC(0-t) at 24 h ([25]; PO 10 mg/kg, mean ± SD, N = 4): 540 ± 132 ng·h/mL
Cmax at 24 h ([25]; PO 10 mg/kg, mean ± SD, N = 4): 185 ± 14.5 ng/mL
Tmax at 24 h ([25]; PO 10 mg/kg, mean ± SD, N = 4): 49.8 ± 17.4 min
half-life at 24 h ([25]; PO 10 mg/kg, mean ± SD, N = 4): 172 ± 113 min
Tmax ([25]; oral route, 10 mg/kg, read-out: time of maximal concentration post-ingestion (converted)): 50 min
glucose handling after ip glucose load ([6]; 9 0.1 mg/kg ip, ip 2 g/kg glucose, 0.1 mg/kg): improved glucose handling
glucose handling after oral glucose load ([6]; 9 0.1 or 1 mg/kg ip, oral 2 g/kg glucose): improved glucose handling
IC50 [26]: 4.13 µM
hERG inhibition (in words) [26]: weak inhibitor of the hERG channel at micromolar concentrations
Inhibition (%), Mean ([26]; 1 µM): 29.7%
Inhibition (%), single values ([26]; 1 µM): 27.0% and 32.3%
Inhibition (%), Mean ([26]; 10 µM): 62.3%
Inhibition (%), single values ([26]; 10 µM): 52.1% and 72.5%
Inhibition (%), Mean ([26]; 30 µM): 80.5%
Inhibition (%), single values ([26]; 30 µM): 78.0% and 83.0%
